In patent US7906522B2, “2-aminoquinazoline derivatives” (Kyowa Hakko Kirin Co., Ltd, priority 2005, dated 2011):

target: T1, Activated human p38α (Homo sapiens, UniProt Q16539); test: p38MAP kinase inhibition test; assay type: biochemical; conditions: at a concentration of 1 μmol/L; substrate myelin basic protein, ATP 20 μmol/L, [γ-32P]ATP; read-out: enzyme inhibitory activity
T1 construct: purchased Upstate Biotechnology Inc. 14-251
Procedure: p38MAP Kinase Inhibition Test
Activated human p38α was purchased from Upstate Biotechnology Inc. (Catalog No. 14-251). P38MAP kinase inhibitory activity was measured by the procedure described below with reference to the method by Whitmarsh A. J. and Davis R. J. [Methods in Enzymology (Method. Enzymol.), vol. 332, p. 319-336 (2001)]. As the substrate to be phosphorylated, a myelin basic protein (Catalog No. 133-13493, Wako Pure Chemical Industries, Ltd.) (20 μg/assay) was used. The reaction was carried out in a solution containing 3-[N-Morpholino]propanesulfonic acid (MOPS) (20 mmol/L, pH 7.2), β-glycerophosphoric acid (Sigma Corp.) (25 mmol/L), ethylenebis(oxyethylenenitrilo)tetraacetic acid (EGTA) (1 mmol/L), […] (Sigma-Aldrich Corp.) (1 mmol/L), dithiothreitol (DTT, Wako Pure Chemical Industries, Ltd.) (1 mmol/L), adenosine 5′-triphosphate (ATP, Sigma Corp.) (20 μmol/L), and MgCl2 (18.75 mmol/L) (total 40 μL/assay). The reaction was started by adding human p38α and [γ-^32P]ATP (1 μCi/assay), and incubation was performed at 30° C. for 15 minutes. The reaction was terminated by adding 4.5% v/v phosphoric acid (10 μL/well). Then, 45 μL of the reaction mixture was adsorbed onto phosphocellulose paper (p81 paper, Code No. 3698023, Whatman International, Maidstone, UK). The phosphocellulose paper was washed with 0.75% v/v phosphoric acid. Then, the radioactivity of the phosphorylated myelin basic protein ([^32P]) remaining on the phosphocellulose paper was measured with a scintillation counter (TRI-CARB2700TR, PerkinElmer, Boston, Mass., USA) using program No. 27 (data mode: cpm, measurement time: 1 min, Background substract: none, energy range measured: LL 0.0-UL 2000) or a scintillation counter (LS6500, BeckmanCoulter, Fullerton, Calif., USA) using program No. 17 (data mode: cpm, measurement time: 1 min, Background substract: none, energy range measured: high). The test compound was dissolved in DMSO before addition.

T1 sequence (Q16539 whole entry): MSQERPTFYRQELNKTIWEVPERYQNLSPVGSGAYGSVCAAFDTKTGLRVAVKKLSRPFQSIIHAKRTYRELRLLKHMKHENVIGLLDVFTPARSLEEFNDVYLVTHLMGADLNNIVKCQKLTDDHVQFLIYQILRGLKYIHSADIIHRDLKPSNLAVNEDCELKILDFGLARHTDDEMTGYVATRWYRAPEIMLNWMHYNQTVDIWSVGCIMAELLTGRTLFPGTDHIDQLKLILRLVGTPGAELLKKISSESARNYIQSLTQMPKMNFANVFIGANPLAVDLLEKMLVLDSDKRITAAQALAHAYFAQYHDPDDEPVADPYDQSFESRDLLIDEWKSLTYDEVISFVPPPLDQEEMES

Row | inhibition at 1 µM | SMILES
1 | ≥ 50% | COc1cc2nc(NC(C)C)ncc2cc1C(=O)c1cccc(F)c1 [Compound 116, 6-(3-Fluorobenzoyl)-2-isopropylamino-7-methoxyquinazoline]
2 | ≥ 50% | COc1cc2nc(NC(C)C)ncc2cc1C(=O)c1cccc(Cl)c1 [Compound 117, 6-(3-Chlorobenzoyl)-2-isopropylamino-7-methoxyquinazoline]
3 | ≥ 50% | Cc1cccc(C(=O)c2cc3cnc(NC(C)C)nc3cc2O)c1 [Compound 118, 7-Hydroxy-2-isopropylamino-6-(3-methylbenzoyl)quinazoline]
4 | ≥ 50% | Cc1ccccc1C(=O)c1cc2cnc(NC(C)C)nc2cc1O [Compound 119, 7-Hydroxy-2-isopropylamino-6-(2-methylbenzoyl)quinazoline]
5 | ≥ 50% | CC(C)Nc1ncc2cc(C(=O)c3cccc(Cl)c3)c(O)cc2n1 [Compound 120, 6-(3-Chlorobenzoyl)-7-hydroxy-2-(isopropylamino)quinazoline]
6 | ≥ 50% | COc1cccc(C(=O)c2cc3cnc(NC(C)C)nc3cc2O)c1 [Compound 121, 7-Hydroxy-2-isopropylamino-6-(3-methoxybenzoyl)quinazoline]
7 | ≥ 50% | COc1ccccc1C(=O)c1cc2cnc(NC(C)C)nc2cc1O [Compound 122, 7-Hydroxy-2-isopropylamino-6-(2-methoxybenzoyl)quinazoline]
8 | ≥ 50% | CC(C)Nc1ncc2cc(C(=O)c3cccc(O)c3)c(O)cc2n1 [Compound 123, 7-Hydroxy-6-(3-hydroxybenzoyl)-2-(isopropylamino)quinazoline]
9 | ≥ 50% | CC(C)Nc1ncc2cc(C(=O)c3ccccc3Cl)c(O)cc2n1 [Compound 125, 6-(2-Chlorobenzoyl)-7-hydroxy-2-(isopropylamino)quinazoline]
10 | ≥ 50% | CC(C)Nc1ncc2cc(C(=O)c3ccccc3F)c(O)cc2n1 [Compound 126, 6-(2-Fluorobenzoyl)-7-hydroxy-2-(isopropylamino)quinazoline]
11 | ≥ 50% | CC(C)Nc1ncc2cc(C(=O)c3ccc(F)c(Cl)c3)c(O)cc2n1 [Compound 127, 6-(3-Chloro-4-fluorobenzoyl)-7-hydroxy-2-(isopropylamino)quinazoline]
12 | ≥ 50% | CC(C)Nc1ncc2cc(C(=O)c3ccc(F)c(F)c3)c(O)cc2n1 [Compound 129, 6-(3,4-Difluorobenzoyl)-7-hydroxy-2-(isopropylamino)quinazoline]
13 | ≥ 50% | CC(C)Nc1ncc2cc(C(=O)c3ccc(F)cc3)c(O)cc2n1 [Compound 131, 6-(4-Fluorobenzoyl)-7-hydroxy-2-(isopropylamino)quinazoline]
14 | ≥ 50% | CC(C)Nc1ncc2cc(C(=O)c3cccc(F)c3)c(O)cc2n1 [Compound 132, 6-(3-Fluorobenzoyl)-7-hydroxy-2-(isopropylamino)quinazoline]
15 | ≥ 50% | CC(C)Nc1ncc2cc(C(=O)c3cc(F)cc(F)c3)c(O)cc2n1 [Compound 134, 6-(3,5-Difluorobenzoyl)-7-hydroxy-2-(isopropylamino)quinazoline]
16 | ≥ 50% | CC[C@H](C)Nc1ncc2cc(C(=O)c3cccc(C)c3)c(O)cc2n1 [Compound 135, (S)-2-(sec-Butylamino)-7-hydroxy-6-(3-methylbenzoyl)quinazoline]
17 | ≥ 50% | CS(=O)(=O)N1CCC(Nc2ncc3cc(C(=O)c4ccccc4)c(O)cc3n2)CC1 [Compound 136, 6-Benzoyl-7-hydroxy-2-[1-(methylsulfonyl)piperidin-4-ylamino]quinazoline]
18 | ≥ 50% | CCOC(=O)N1CCC(Nc2ncc3cc(C(=O)c4ccccc4)c(O)cc3n2)CC1 [Compound 137, 6-Benzoyl-2-[1-(ethoxycarbonyl)piperidin-4-ylamino]-7-hydroxyquinazoline]

Second part, the compound before the results:

Row | SMILES | inhibition at 1 µM
19 | CC(C)Nc1ncc2cc(-c3ccc(F)cc3F)c(O)c(-c3ccc(F)cc3)c2n1 [Compound 84, 6-(2,4-Difluorophenyl)-8-(4-fluorophenyl)-2-isopropylamino-7-hydroxyquinazoline] | ≥ 50%
20 | COc1c(-c2ccccc2Cl)cc2cnc(NC(C)C)nc2c1-c1ccccn1 [Compound 86, 6-(2-Chlorophenyl)-2-isopropylamino-7-methoxy-8-(2-pyridyl)quinazoline] | ≥ 50%
21 | CC(C)Nc1ncc2cc(-c3ccccc3Cl)c(O)c(-c3ccccn3)c2n1 [Compound 87, 6-(2-Chlorophenyl)-2-isopropylamino-7-hydroxy-8-(2-pyridyl)quinazoline] | ≥ 50%
22 | CC(C)Nc1ncc2cc(-c3ccccc3Cl)c(O)c(I)c2n1 [Compound 88, 6-(2-Chlorophenyl)-7-hydroxy-8-iodo-2-(isopropylamino)quinazoline] | ≥ 50%
23 | COCOc1c(-c2ccccc2Cl)cc2cnc(NC(C)C)nc2c1-c1ccc(C(=O)O)cc1 [Compound 91, 8-(4-Carboxyphenyl)-6-(2-chlorophenyl)-2-isopropylamino-7-(methoxymethyloxy)quinazoline] | ≥ 50%
24 | CC(C)Nc1ncc2cc(-c3ccccc3Cl)c(O)c(-c3ccc(C(=O)O)cc3)c2n1 [Compound 92, 8-(4-Carboxyphenyl)-6-(2-chlorophenyl)-7-hydroxy-2-(isopropylamino)quinazoline] | ≥ 50%
25 | COCOc1c(-c2ccccc2Cl)cc2cnc(NC(C)C)nc2c1-c1cccc(C(=O)O)c1 [Compound 93, 8-(3-Carboxyphenyl)-6-(2-chlorophenyl)-2-isopropylamino-7-(methoxymethyloxy)quinazoline] | ≥ 50%
26 | CC(C)Nc1ncc2cc(-c3ccccc3Cl)c(O)c(-c3cccc(C(=O)O)c3)c2n1 [Compound 94, 8-(3-Carboxyphenyl)-6-(2-chlorophenyl)-7-hydroxy-2-(isopropylamino)quinazoline] | ≥ 50%
27 | CC(C)Nc1ncc2cc(-c3ccccc3Cl)c(O)c(-c3ccc(CC(=O)O)cc3)c2n1 [Compound 95, 8-[4-(Carboxymethyl)phenyl]-6-(2-chlorophenyl)-7-hydroxy-2-(isopropylamino)quinazoline] | ≥ 50%
28 | CC(C)Nc1ncc2cc(-c3ccccc3Cl)c(O)c(-c3cccc(CC(=O)O)c3)c2n1 [Compound 96, 8-[3-(Carboxymethyl)phenyl]-6-(2-chlorophenyl)-7-hydroxy-2-(isopropylamino)quinazoline] | ≥ 50%
29 | CC(C)Nc1ncc2cc(-c3ccccc3Cl)c(O)c(-c3ccccc3Cl)c2n1 [Compound 98, 6,8-Di(2-chlorophenyl)-7-hydroxy-2-(isopropylamino)quinazoline] | ≥ 50%
30 | COCOc1c(-c2ccccc2Cl)cc2cnc(NC(C)C)nc2c1-c1ccccc1F [Compound 99, 6-(2-Chlorophenyl)-8-(2-fluorophenyl)-2-isopropylamino-7-(methoxymethyloxy)quinazoline] | ≥ 50%
31 | CC(C)Nc1ncc2cc(-c3ccccc3Cl)c(O)c(-c3ccccc3F)c2n1 [Compound 100, 6-(2-Chlorophenyl)-8-(2-fluorophenyl)-7-hydroxy-2-(isopropylamino)quinazoline] | ≥ 50%
32 | CC(C)Nc1ncc2cc(-c3ccccc3Cl)c(O)c(-c3c(F)cccc3F)c2n1 [Compound 102, 6-(2-Chlorophenyl)-8-(2,6-difluorophenyl)-7-hydroxy-2-(isopropylamino)quinazoline] | ≥ 50%
33 | COc1cc2nc(NC(C)C)ncc2cc1C(=O)c1ccccc1 [Compound 109, 6-Benzoyl-2-isopropylamino-7-methoxyquinazoline] | ≥ 50%
34 | CC(C)Nc1ncc2cc(C(=O)c3ccccc3)c(O)cc2n1 [Compound 110, 6-Benzoyl-7-hydroxy-2-(isopropylamino)quinazoline] | ≥ 50%
35 | CCOC(=O)c1oc2c(-c3ccccc3Cl)cc3cnc(NC(C)C)nc3c2c1C [Compound 111, 6-(2-Chlorophenyl)-8-ethoxycarbonyl-2-isopropylamino-9-methylfuro[2,3-h]quinazoline] | ≥ 50%
36 | CC(C)Nc1ncc2cc(-c3ccccc3Cl)c3oc(C(C)(C)O)cc3c2n1 [Compound 112, 6-(2-Chlorophenyl)-8-(1-hydroxy-1-methylethyl)-2-(isopropylamino)furo[2,3-h]quinazoline] | ≥ 50%
37 | COc1cc2nc(NC(C)C)ncc2cc1C(=O)c1ccccc1C [Compound 113, 2-Isopropylamino-7-methoxy-6-(2-methylbenzoyl)quinazoline] | ≥ 50%
38 | COc1cc2nc(NC(C)C)ncc2cc1C(=O)c1cccc(C)c1 [Compound 114, 2-Isopropylamino-7-methoxy-6-(3-methylbenzoyl)quinazoline] | ≥ 50%
